One test relates to HCV 1b genotype. The experiment in a line: HCV Replicon assay (HCV-neo replicon cells), 1b genotype. Type of test: cell-based. To be noted: Hepatitis C virus; HCV 1b genotype replicon; numeric value; read-out: 1b EC50 (in μM or range). The protocol: An HCV Replicon assay was utilized in the present disclosure, and was prepared, conducted and validated as described in commonly owned PCT/US2006/022197 and in O'Boyle et al., Antimicrob. Agents Chemother., 49(4):1346-1353 (April 2005). Assay methods incorporating luciferase reporters have also been used as described (Apath.com).
HCV-neo replicon cells and replicon cells containing mutations in the NS5A region were used to test the currently described family of compounds. The compounds were determined to have more than 10-fold less inhibitory activity on cells containing mutations than wild-type cells. Thus, the compounds of the present disclosure can be effective in inhibiting the function of the HCV NS5A protein and are understood to be as effective in combinations as previously described in application PCT/US2006/022197 and commonly owned WO 04/014852. Further, the compounds of the present disclosure can be effective against the HCV 1b genotype. It should also be understood that the compounds of the present disclosure can inhibit multiple genotypes of HCV. […] In one embodiment compounds of the present disclosure are inhibitory versus 1a, 1b, 2a, 2b, 3a, 4a, and 5a genotypes. […] The compounds of the present disclosure may inhibit HCV by mechanisms in addition to or other than NS5A inhibition. In one embodiment the compounds of the present disclosure inhibit HCV replicon and in another embodiment the compounds of the present disclosure inhibit NS5A.
A general note: Replicon systems follow genome replication, usually without infectious particles.
Consider `COC(=O)N[C@@H](C(=O)N1CCC[C@H]1c1ncc(-c2ccc(-c3cnc(-c4c[nH]c([C@@H]5CCCN5C(=O)OCc5ccccc5)n4)o3)cc2)[nH]1)c1ccccc1` [Example 27, Benzyl (2S)-2-(4-(5-(4-(2-((2S)-1-((2R)-2-((methoxycarbonyl)amino)-2-phenylacetyl)-2-pyrrolidinyl)-1H-imidazol-4-yl)phenyl)-1,3-oxazol-2-yl)-1H-imidazol-2-yl)-1-pyrrolidinecarboxylate], for which the EC50 (usually the concentration giving half of the maximal effect) was determined as 0.00671 µM.

The same test, now with this note: Hepatitis C virus; HCV 1b genotype replicon; value given as range class; read-out: 1b EC50 (in μM or range).
Consider `CN(C)[C@@H](C(=O)N1CCC[C@H]1c1ncc(-c2ncc(-c3cnc(-c4cnc([C@@H]5CCCN5C(=O)[C@@H](c5ccccc5)N(C)C)[nH]4)s3)s2)[nH]1)c1ccccc1` [Example 8, (1R,1′R)-2,2′-(5,5′-Bi-1,3-thiazole-2,2′-diylbis(1H-imidazole-4,2-diyl(2S)-2,1-pyrrolidinediyl))bis(N,N-dimethyl-2-oxo-1-phenylethanamine)], for which the EC50 was < 0.001 µM.

As to `CN(C)[C@@H](C(=O)N1CCC[C@H]1c1ncc(CCc2ccc(-c3cnc([C@@H]4CCCN4C(=O)[C@@H](c4ccccc4)N(C)C)[nH]3)cc2)[nH]1)c1ccccc1` [Example M3, [(1R)-2-((2S)-2-(4-(4-(2-(2-((2S)-1-((2R)-2-(Dimethylamino)-2-phenylacetyl)-2-pyrrolidinyl)-1H-imidazol-4-yl)ethyl)phenyl)-1H-imidazol-2-yl)-1-pyrrolidinyl)-N,N-dimethyl-2-oxo-1-phenylethanamine]], the concentration for a half-maximal effect (EC50) was in the range of 0.001 to 0.01 µM.

Regarding `COC(=O)N[C@@H](C(=O)N1CCC[C@H]1c1nc(CCc2ccc(CCc3cnc([C@@H]4CCCN4C(=O)[C@H](NC(=O)OC)c4ccccc4)[nH]3)cc2)c[nH]1)c1ccccc1` [Example 41, dimethyl (1,4-phenylenebis(2,1-ethanediyl-1H-imidazole-4,2-diyl(2S)-2,1-pyrrolidinediyl((1R)-2-oxo-1-phenyl-2,1-ethanediyl)))biscarbamate], the EC50 was < 0.001 µM.

`COC(=O)N[C@H](C(=O)N1CCC[C@H]1c1nc(CCc2ccc(CCc3cnc([C@@H]4CCCN4C(=O)[C@@H](NC(=O)OC)[C@@H](C)OC)[nH]3)cc2)c[nH]1)[C@@H](C)OC` [Example 44, methyl ((1S,2R)-2-methoxy-1-(((2S)-2-(4-(2-(4-(2-(2-((2S)-1-(N-(methoxycarbonyl)-O-methyl-L-threonyl)-2-pyrrolidinyl)-1H-imidazol-4-yl)ethyl)phenyl)ethyl)-1H-imidazol-2-yl)-1-pyrrolidinyl)carbonyl)propyl)carbamate]: the concentration giving a half-maximal response (EC50) lay in the range of 0.01 to 10 µM.

Consider `CN(C)[C@@H](C(=O)N1CCC[C@H]1c1ncc(-c2ccc(-c3cnc(-c4c[nH]c([C@@H]5CCCN5C(=O)OCc5ccccc5)n4)o3)cc2)[nH]1)c1ccccc1` [Example 28, Benzyl (2S)-2-(4-(5-(4-(2-((2S)-1-((2R)-2-((N,N-dimethyl)amino)-2-phenylacetyl)-2-pyrrolidinyl)-1H-imidazol-4-yl)phenyl)-1,3-oxazol-2-yl)-1H-imidazol-2-yl)-1-pyrrolidinecarboxylate], for which the EC50 lay within 0.001 to 0.01 µM.

For the molecule `COC(=O)N[C@H](C(=O)N1CCC[C@H]1c1ncc(-c2cnc(-c3ncc(-c4cnc([C@@H]5CCCN5C(=O)[C@@H](NC(=O)OC)[C@@H](C)OC)[nH]4)s3)s2)[nH]1)[C@@H](C)OC` [Example 19, Methyl ((1S,2R)-2-methoxy-1-(((2S)-2-(4-(5′-(2-((2S)-1-(N-(methoxycarbonyl)-O-methyl-L-threonyl)-2-pyrrolidinyl)-1H-imidazol-4-yl)-2,2′-bi-1,3-thiazol-5-yl)-1H-imidazol-2-yl)-1-pyrrolidinyl)carbonyl)propyl)carbamate], the EC50 lay within 0.001 to 0.01 µM.

Take `COC(=O)N[C@H](C(=O)N1CCC[C@H]1c1ncc(-c2ncc(-c3cnc(-c4cnc([C@@H]5CCCN5C(=O)[C@@H](NC(=O)OC)[C@@H](C)OC)[nH]4)s3)s2)[nH]1)[C@@H](C)OC` [Example 12, Methyl ((1S,2R)-2-methoxy-1-(((2S)-2-(4-(2′-(2-((2S)-1-(N-(methoxycarbonyl)-O-methyl-L-threonyl)-2-pyrrolidinyl)-1H-imidazol-4-yl)-5,5′-bi-1,3-thiazol-2-yl)-1H-imidazol-2-yl)-1-pyrrolidinyl)carbonyl)propyl)carbamate]: the EC50 is 0.01 to 10 µM.

Take `CN(C)[C@@H](C(=O)N1CCC[C@H]1c1nc(-c2ncc(-c3cccc(-c4cnc([C@@H]5CCCN5C(=O)[C@@H](c5ccccc5)N(C)C)[nH]4)c3)o2)c[nH]1)c1ccccc1` [Example 22, (1R)-2-((2S)-2-(4-(3-(2-(2-((2S)-1-((2R)-2-(Dimethylamino)-2-phenylacetyl)-2-pyrrolidinyl)-1H-imidazol-4-yl)-1,3-oxazol-5-yl)phenyl)-1H-imidazol-2-yl)-1-pyrrolidinyl)-N,N-dimethyl-2-oxo-1-phenylethanamine]: the EC50 was in the range of 0.001 to 0.01 µM.

On to `COC(=O)N[C@H](C(=O)N1CCC[C@H]1c1nc(/C=C/c2ccc(/C=C/c3cnc([C@@H]4CCCN4C(=O)[C@@H](NC(=O)OC)C(C)C)[nH]3)cc2)c[nH]1)C(C)C` [Example 38, methyl ((1S)-1-(((2S)-2-(4-((E)-2-(4-((E)-2-(2-((2S)-1-((2S)-2-((methoxycarbonyl)amino)-3-methylbutanoyl)-2-pyrrolidinyl)-1H-imidazol-4-yl)vinyl)phenyl)vinyl)-1H-imidazol-2-yl)-1-pyrrolidinyl)carbonyl)-2-methylpropyl)carbamate], for which the EC50 is < 0.001 µM.

`COC(=O)N[C@H](C(=O)N1[C@@H]2C[C@@H]2C[C@H]1c1ncc(C#CC#Cc2cnc([C@@H]3C[C@H]4C[C@H]4N3C(=O)[C@@H](NC(=O)OC)C3CCOCC3)[nH]2)[nH]1)C1CCOCC1` [Example 34, Dimethyl (1,3-butadiyne-1,4-diylbis(1H-imidazole-4,2-diyl(1R,3S,5R)-2-azabicyclo[3.1.0]hexane-3,2-diyl((1S)-2-oxo-1-(tetrahydro-2H-pyran-4-yl)-2,1-ethanediyl)))biscarbamate]: the concentration giving a half-maximal response (EC50) was in the range of 0.001 to 0.01 µM.

As for `COC(=O)N[C@H](C(=O)N1CCC[C@H]1c1ncc(-c2ccc(-c3ccc(-c4cnc([C@@H]5CCCN5C(=O)[C@@H](NC(=O)OC)C5CC5)[nH]4)s3)s2)[nH]1)C1CC1` [Example 7, Dimethyl (2,2′-bithiene-5,5′-diylbis(1H-imidazole-4,2-diyl(2S)-2,1-pyrrolidinediyl((1S)-1-cyclopropyl-2-oxo-2,1-ethanediyl)))biscarbamate], the EC50 is < 0.001 µM.

Turning to `COC(=O)N[C@H](C(=O)N1CCC[C@H]1c1nc(C#Cc2ccc(C#Cc3c[nH]c([C@@H]4CCCN4C(=O)[C@@H](NC(=O)OC)[C@@H](C)OC)n3)cc2)c[nH]1)[C@@H](C)OC` [Example M5, Methyl ((1S,2R)-2-methoxy-1-(((2S)-2-(4-((4-((2-((2S)-1-(N-(methoxycarbonyl)-O-methyl-L-threonyl)-2-pyrrolidinyl)-1H-imidazol-4-yl)ethynyl)phenyl)ethynyl)-1H-imidazol-2-yl)-1-pyrrolidinyl)carbonyl)propyl)carbamate], the EC50 was < 0.001 µM.

For `COC(=O)N[C@H](C(=O)N1CCC[C@H]1c1ncc(-c2ncc(-c3cnc(-c4cnc([C@@H]5CCCN5C(=O)[C@@H](NC(=O)OC)C(C)C)[nH]4)s3)s2)[nH]1)C(C)C` [Example 10, Methyl ((1S)-1-(((2S)-2-(4-(2′-(2-((2S)-1-((2S)-2-((methoxycarbonyl)amino)-3-methylbutanoyl)-2-pyrrolidinyl)-1H-imidazol-4-yl)-5,5′-bi-1,3-thiazol-2-yl)-1H-imidazol-2-yl)-1-pyrrolidinyl)carbonyl)-2-methylpropyl)carbamate], the EC50 fell in the range of 0.001 to 0.01 µM.

These data come from patent publication US8618153B2, “Hepatitis C virus inhibitors” (Bristol-Myers Squibb Company, priority 2009, dated 2013).
